Where a name gives a salt, the structure may show the parent alone.

Assay [1] concerns bovine i.m. adipose tissue. Description: cAMP in i.m. adipose tissue explants (Cyclic AMP XP Assay Kit). It is filed as cell-based, bovine (Angus cross steers). To be noted: for Effect on cAMP (in words): ligand alone; for Effect on cAMP (in words) / cAMP: 30 min; for cAMP: i.m., mean ± SEM, n = 6 steers, baseline 0.64 ± 0.19. As to the method:
(§1) Fresh s.c. adipose tissue was cut into small pieces (50 to 100 mg, actual weight recorded) and i.m. adipose tissue was dissected from the LM as described previously ([Smith and Crouse, 1984]; [Miller et al., 1988]) and weighed. The s.c. and i.m. adipose samples were incubated according to 3 different sets of experimental conditions. Experiment 1: Small pieces of s.c. and i.m. adipose tissues (50 to 100 mg; 1 to 2 mm thick; [Smith and Prior, 1981]) were preincubated in 6-well tissue culture plates in a CO2/O2 incubator (NuAire model 4750 CO2 incubator, Plymouth, MN) for 30 min at 37 °C, 5% CO2 in KHB plus 5 mM glucose, 10 mM HEPES, and 0.5 mM theophylline. […] Experiment 2: The s.c. and i.m. adipose samples were preincubated in KHB plus 5 mM glucose, 10 mM HEPES, and 0.5 mM theophylline in the presence or absence of either 10 µM L-748,337 (β 3-AR antagonist) or 50 µM PRO (β-AR pan-antagonist). […] After the 30 min preincubation, either DOB (β 1-AA) or SAL (β 2-AA) was added to the culture plate wells in a concentration-dependent manner (10^–9 to 10^–4 M) for an additional 30 min. For all experiments, there were at least 3 replicate wells per treatment condition. After a total of 1-hr incubation, the adipose samples were homogenized in 1 mL cell lysis buffer (Cell Signaling Technology, Danvers, MA) with 1 mM phenymethylsulfony fluoride, and centrifuged at 14,000 × g for 30 min to remove tissue debris. The supernatant fractions were stored at −80 °C until subsequent analyses were performed.
(§2) The concentration of cAMP was determined based on the principle of competitive binding using the Cyclic AMP XP Assay Kit according to the manufacturer’s instructions. Cytosolic extracts from the adipose explants were co-incubated at room temperature for 3 hr in 96-well plates with the HRP-linked cAMP substrate coated onto an immobilized rabbit monoclonal cAMP antibody using a horizontal orbital plate shaker. After the reaction, color development was measured at 450 nm using an Epoch microplate reader (Biotek Instruments, Winooski, VT). All samples were analyzed in duplicate. A standard curve and cAMP concentrations were calculated using GrapPad Prism 6.04 software (GraphPad Software Inc., San Diego, CA).

Assay [2] has as its system bovine i.m. adipose tissue. Description: Lipolysis: glycerol release, i.m. adipose tissue explants. The assay is classed as cell-based, bovine (Angus cross steers). To be noted: 30 min; for Effect on glycerol release (in words): i.m. adipose tissue; for Glycerol: i.m., mean ± SEM, baseline 48.6 ± 10.3.
Assay [3] concerns bovine s.c. adipose tissue. Description: Lipolysis: NEFA release, s.c. adipose tissue explants. It is filed as cell-based, bovine (Angus cross steers). To be noted: for Effect on NEFA release (in words) / NEFA: 30 min; for NEFA: s.c., mean ± SEM, baseline 0.99 ± 0.40.
For assay [4], the system named is bovine i.m. adipose tissue. Description: Lipolysis: NEFA release, i.m. adipose tissue explants. The assay is classed as cell-based, bovine (Angus cross steers). To be noted: 30 min; for Effect on NEFA release (in words): i.m. adipose tissue; for NEFA: i.m., mean ± SEM, baseline 0.65 ± 0.20.
Another assay has as its target T1, bovine β 1-AR (Bos taurus, UniProt Q9TT96).
T1 construct: expressed in transfected cells; host or cells: Chinese hamster ovary (CHO) cells, pcDNA3.1+ vector
The assay is described as follows: cAMP induction in CHO cells transfected with bovine β 1-AR construct (LANCE cAMP kit). It is filed as cell-based. To be noted: 45 min, 5 mM theophylline, ND = cAMP not detected or insufficient for EC50. The procedure: (§3) Chinese Hamster Overy cells were transfected with either the bovine β 1-, β 2-, or β 3-AR constructs in pcDNA3.1+. Expression of the β-AR was confirmed by polymerase chain reaction (PCR). Thereafter, cells were grown in DMEM/Ham’s F12 media with 10% FBS and 1% penicillin/streptomycin at 37 °C under 5% CO2. Opti-plates (Perkin Elmer, Waltham, MA) were used for all experiments. For each experiment, cells were plated into 96-well tissue culture plates at 60,000 cells per well in a volume of 100 µL media. Cells were grown for 48 hr after plating prior to ligand addition and determination of cAMP.
(§4) All samples and standards were tested in duplicate for each repetition, and 4 repetitions per cell line were performed for each potential ligand tested. Controls included no treatment (media alone), 5 mM theophylline alone (an inhibitor of phosphodiesterase), 0.1 % DMSO alone, and water alone. None of the controls differed from media alone and are thus not reported. A volume of media equal to the volume of test material to be added was removed from the well just prior to stimulation. Theophylline was added in a volume of 25 µL to obtain a final concentration of 5 mM and each test molecule was delivered in 10 µL. Cells were returned to 37 °C and allowed to incubate for 45 min before media was removed and the cells lysed in 38 µL lysis buffer A. The LANCE cAMP detection kit (AD0262E) was purchased from Perkin Elmer. The LANCE assay instructions were followed for a 40 µL reaction volume with 15 µL of cell lysate. The reaction was incubated for 20 hr prior to measuring fluorescence. A standard curve was generated with increasing concentrations of cAMP, and the linear portion of the curve was used to calculate sample cAMP concentrations.
(In general: In TR-FRET formats the signal depends on donor and acceptor labels being close together.)

Assay [5] deals with bovine s.c. adipose tissue. Description: cAMP in s.c. adipose tissue explants (Cyclic AMP XP Assay Kit). The assay is classed as cell-based, bovine (Angus cross steers). To be noted: for Effect on cAMP (in words): ligand alone; for Effect on cAMP (in words) / cAMP: 30 min; for cAMP: n = 6 steers, baseline 0.42 ± 0.06. The procedure: as §1, §2
The target in a further assay is T2, bovine β 3-AR (Bos taurus, UniProt P46626).
T2 construct: expressed in transfected cells; host or cells: Chinese hamster ovary (CHO) cells, pcDNA3.1+ vector
T2 sequence (P46626 whole entry): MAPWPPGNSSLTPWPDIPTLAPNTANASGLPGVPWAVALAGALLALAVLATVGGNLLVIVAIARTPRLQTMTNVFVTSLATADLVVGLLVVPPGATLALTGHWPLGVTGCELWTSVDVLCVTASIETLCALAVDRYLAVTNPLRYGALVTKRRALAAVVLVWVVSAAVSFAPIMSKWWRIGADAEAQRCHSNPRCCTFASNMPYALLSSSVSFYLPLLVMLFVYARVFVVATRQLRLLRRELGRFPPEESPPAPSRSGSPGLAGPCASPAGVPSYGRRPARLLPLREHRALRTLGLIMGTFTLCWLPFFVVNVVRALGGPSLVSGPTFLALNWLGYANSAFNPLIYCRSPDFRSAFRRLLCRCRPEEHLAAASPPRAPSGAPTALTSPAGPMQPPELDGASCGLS
Description: cAMP induction in CHO cells transfected with bovine β 3-AR construct (LANCE cAMP kit). To be noted: 45 min, 5 mM theophylline. It is filed as cell-based. The procedure: as §3, §4

Assay [6] has as its system bovine s.c. adipose tissue. The assay is described as follows: Lipolysis: glycerol release, s.c. adipose tissue explants. The assay is classed as cell-based, bovine (Angus cross steers). To be noted: for Glycerol: s.c., mean ± SEM, baseline 50.0 ± 12.8.
Setting [7] is: Bos taurus, sc, 0.5 h, s.c. adipose tissue, 30 min at 37 °C, n = 5.

T1 sequence (Q9TT96 whole entry): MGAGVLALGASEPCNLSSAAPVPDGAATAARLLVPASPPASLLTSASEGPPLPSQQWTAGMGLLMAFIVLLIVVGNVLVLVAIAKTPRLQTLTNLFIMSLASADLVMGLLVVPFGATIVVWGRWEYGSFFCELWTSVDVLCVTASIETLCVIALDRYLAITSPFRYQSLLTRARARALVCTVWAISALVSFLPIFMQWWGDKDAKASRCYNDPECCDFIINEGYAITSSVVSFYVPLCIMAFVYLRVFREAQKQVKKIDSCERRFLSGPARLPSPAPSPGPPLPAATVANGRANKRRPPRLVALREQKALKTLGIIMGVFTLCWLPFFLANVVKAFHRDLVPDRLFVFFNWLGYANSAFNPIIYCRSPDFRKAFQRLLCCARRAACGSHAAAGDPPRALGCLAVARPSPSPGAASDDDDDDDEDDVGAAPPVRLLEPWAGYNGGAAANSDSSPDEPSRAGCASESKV

For `CC(CCc1ccc(O)cc1)NCC(O)c1ccc(O)cc1.Cl` (racemic) [RAC, ractopamine hydrochloride], the “Effect on cAMP (in words)” value in assay [1] (i.m. adipose tissue) and in assay [5] (s.c. adipose tissue) was “Neither RAC nor ZIL (10^–8 to 10^–6 M) affected cAMP concentrations” in each case. In addition, the cAMP is 0.70 ± 0.18 pmol/100 mg tissue in assay [1] (10^–6 M ligand); 0.76 ± 0.18 pmol/100 mg tissue in assay [1] (10^–7 M ligand); 0.86 ± 0.22 pmol/100 mg tissue in assay [1] (10^–8 M ligand); 0.44 ± 0.14 pmol/100 mg tissue in assay [5] (s.c., 10^–6 M ligand, mean ± SEM); 0.38 ± 0.08 pmol/100 mg tissue in assay [5] (s.c., 10^–7 M ligand, mean ± SEM); 0.39 ± 0.09 pmol/100 mg tissue in assay [5] (s.c., 10^–8 M ligand, mean ± SEM). For the same molecule, in assay [2], the “Effect on glycerol release (in words)” value is recorded as “Neither RAC nor ZIL affected cAMP production or glycerol or NEFA release”. Besides, the Glycerol came to 42.6 ± 11.4 nmol/100 mg tissue in assay [2] (10^–6 M ligand); 81.7 ± 25.5 nmol/100 mg tissue in assay [2] (10^–7 M ligand); 52.4 ± 16.4 nmol/100 mg tissue in assay [2] (10^–8 M ligand); 63.3 ± 9.20 nmol/100 mg tissue in assay [6] (10^–6 M ligand, 30 min); 52.6 ± 11.1 nmol/100 mg tissue in assay [6] (10^–7 M ligand, 30 min); 50.3 ± 7.60 nmol/100 mg tissue in assay [6] (10^–8 M ligand, 30 min). For the same molecule, the “Effect on NEFA release (in words)” value in assay [3] (s.c. adipose tissue) and in assay [4] was “Neither RAC nor ZIL affected cAMP production or glycerol or NEFA release” in each case. Besides, the NEFA in assay [3] (10^–6 M ligand) is given as 1.06 ± 0.13 µmol/100 mg tissue; in assay [3] (10^–7 M ligand), 1.20 ± 0.21 µmol/100 mg tissue; in assay [3] (10^–8 M ligand), 1.10 ± 0.15 µmol/100 mg tissue; in assay [4] (10^–6 M ligand), 0.56 ± 0.13 µmol/100 mg tissue; in assay [4] (10^–7 M ligand), 1.18 ± 0.50 µmol/100 mg tissue; in assay [4] (10^–8 M ligand) it was 0.75 ± 0.21 µmol/100 mg tissue. The EC50 at bovine β 1-AR was 2 nM; at bovine β 3-AR, 24 nM.

For the molecule `C[C@H](Cc1ccc(OCC(=O)O)cc1)NC[C@H](O)c1cccc(Cl)c1` [BRL-37344], the “cAMP concentration compared with explants treated with the same concentrations of LUB” value in assay [1] (i.m. adipose tissue, 10^–6 and 10^–5 M, P < 0.05) is on record as “significantly less”. Further, the “Effect on NEFA release (in words)” value in assay [3] (s.c. adipose tissue) is on record as “Neither BRL-37344 nor LUB influenced cAMP or NEFA concentrations”; in assay [4], “not influenced”. Besides, the “Effect on cAMP (in words)” value in assay [5] (s.c. adipose tissue) is “Neither BRL-37344 nor LUB influenced cAMP or NEFA concentrations”. Also, the “Adipose tissue lipolytic sensitivity (−logEC50) to β-AR ligands, s.c.” value in assay [5] (s.c., cAMP readout, mean ± SEM, n = 12 cattle, combinations: preincubation with 1 µM LUB ± 10 µM L-748,337) stood at 7.00 ± 3.27.

Turning to `CC(CCc1ccc(O)cc1)NCCc1ccc(O)c(O)c1` (centres unmarked) [DOB, dobutamine hydrochloride], the “Effect on cAMP (in words)” value in assay [1] (i.m. adipose tissue) is given as “without effect in i.m. adipose tissue”; in assay [5] (s.c. adipose tissue), “increased cAMP production in s.c. adipose tissue in a dose-dependent manner”.

Consider `CC(C)NCC(O)c1ccc(O)c(O)c1` (centres unmarked) [ISO, isoproterenol hydrochloride], for which the “Effect on cAMP (in words)” value is given as “not dose-dependent” in assay [1] (i.m. adipose tissue) and “increased cAMP accumulation” in assay [5] (s.c. adipose tissue). Also, the “Effect on glycerol release (in words)” value was “had no effect” in assay [2] and “increased glycerol release in a concentration-dependent manner” in assay [6] (s.c. adipose tissue, 30 min). For the same molecule, the concentration giving a half-maximal response (EC50) in assay [3] (setting [7]) was determined as 180 nM; in assay [5] (Bos taurus, sc, 0.5 h, s.c. adipose tissue, 30 min at 37 °C, n = 5, read-out: EC50, cAMP accumulation) it was 220 nM; in assay [6] (setting [7]) it was 5100 nM. Further, the results for the “Effect on NEFA release (in words)” value in assay [3] (s.c. adipose tissue) and in assay [4] were “increased NEFA release in a dose-dependent manner” and “failed to elicit a similar response curve”, respectively. In addition, in assay [5] (s.c. adipose tissue), the “Concentration at which the cAMP response plateaus” value was 10^–6 M.

As to `CC(C)(C)NCC(O)c1ccc(O)c(CO)c1` (centres unmarked) [SAL, salbutamol sulfate], the entries for the “Effect on cAMP (in words)” value in assay [1] (i.m. adipose tissue) and in assay [5] (s.c. adipose tissue) were “without effect in i.m. adipose tissue” and “increased cAMP production in s.c. adipose tissue in a dose-dependent manner”, respectively.

As usually defined, the EC50 is the concentration giving half of the maximal effect.

Values taken from publication PMC8326056 (Journal of Animal Science, 2021).
